Experimental data as given in patent US20210244721A1, “SMALL MOLECULE ENTEROVIRUS INHIBITORS AND USES THEREOF” (priority 2020, published 2021).

How the values were obtained:
EV-D68 US/IL/14-18956 = assay: CPE assay, EV-D68 US/IL/14-18956 in RD cells; conditions: EV-D68 US/IL/14-18956, RD cells
EV-D68 US/MO/14-18947 = assay: CPE assay, EV-D68 US/MO/14-18947 in RD cells; conditions: EV-D68 US/MO/14-18947, RD cells
A549 = assay: Cytotoxicity in A549 cells
[1] = test system: EV-D68 US/KY/14-18953 virus; assay: CPE assay, EV-D68 US/KY/14-18953 in RD cells; assay type: cell-based, Enterovirus D68 (EV-D68); conditions: EV-D68 US/KY/14-18953, RD cells
RD cells = assay: Cytotoxicity, neutral red method, RD cells; conditions: RD cells, neutral red method
EV-D68 UA/IL/14-18952 = assay: CPE assay, EV-D68 UA/IL/14-18952 in RD cells; conditions: EV-D68 UA/IL/14-18952, RD cells
HeLa = assay: Cytotoxicity in HeLa cells
EV-D68 US/MO/14-18949 = assay: CPE assay, EV-D68 US/MO/14-18949 in RD cells; conditions: EV-D68 US/MO/14-18949, RD cells
in vitro [2] = conditions: African green monkey
EV-A71 Tainan/4643/98 = assay: CPE assay, EV-A71 Tainan in RD cells; assay type: cell-based; conditions: Enterovirus A, EVA71; EV-A71 Tainan, RD cells; read-out: EC50
in vitro [3] = conditions: human

| EC50 (EV-A71 Tainan/4643/98) | Structure (SMILES) | SI (CC50/EC50) (EV-D68 US/IL/14-18956) | SI (CC50/EC50) (EV-D68 US/MO/14-18947) | EC50 (EV-D68 US/MO/14-18947; Enterovirus D, EVD68, RD) | CC50 (A549) | SI = selectivity index (CC50/EC50) [1] | CC50 (RD cells) | SI (CC50/EC50) (EV-D68 UA/IL/14-18952) | CC50 (HeLa) | SI (CC50/EC50) (EV-D68 US/MO/14-18949) | CC50 at 3 days (in vitro [2]) | CC50 at 3 days (in vitro [3]) |
| --- | --- | --- | --- | --- | --- | --- | --- | --- | --- | --- | --- | --- |
|  | O=C(NCCN1CCCC1)c1cc(-c2cccs2)nc2ccccc12 [drawing 130] | 800 | 666.7 | 0.06 µM | 83.2 µM | 666.7 | 40 µM | 571.4 | 41.7 µM | 800 |  |  |
| > 20 µM | Cc1ccc2c(c1)c1c3n2CCNC3CCC1 (stereo not drawn) [drawing 197] |  |  |  |  |  |  |  |  |  | 40.5 µM | 19 µM |
